Results published in patent US20170189416A1, “PHARMACEUTICAL COMPOSITION FOR TREATING BREAST CANCER” (MA SHEN KAI RUEi CO., LTD., priority 2015, published 2017).
Entries after “also recorded” stand apart in the source; their conditions may differ.

Key:
MCF-7 = experiment: MTT survival assay on human breast-cancer cells MCF-7; type: cell-based; settings: MCF-7, MTT assay, isolated compound
From the text: (§1) According to the present invention, the effects such as treating breast cancer, inhibiting the growth of breast cancer cell and others, of Antroquinonol B (AnQB) and/or dehydroeburicoic acid (DeHBA) may be tested by using any of the test methods used in the prior arts, for example, MTT assay of using 3-(4,5-dimethylthiazol-2-yl)-2, S-diphenyl tetrazolium bromide (MTT) to determine cell survival rates of breast cancer cell lines.
(§2) The Antroquinonol B (AnQB) and dehydroeburicoic acid (DeHBA) separately isolated from the Extraction A of Example 1 were added into the culture media of human breast-cancer cells, MCF-7 or MDA-MB-231, to test for tumor cell survival by using anti-cancer drug screen model. This survival assay was carried out with the widely known MTT (3-[4,5-dimethylthiazol-2-yl]2,5-diphenyltetrazolium bromide) assay.
(§3) MCF-7 cell line (purchased from B CRC) is originated from primary breast cancer cells (early stage), sensitive to estrogen and therefore is estrogen-dependent, while MDA-MB-231 is insensitive to estrogen and therefore is estrogen-independent, which is a difficult tumor with a low survival rate.
(§4) The human breast-cancer cells, MCF-7 and MDA-MB-231 were cultivated in media containing fetal calf serum for 36 hours. The proliferated cells were washed once with PBS, then treated with 1× trypsin-EDTA and centrifuged at 2000 rpm for 25 minutes. The supernatant was discarded and the cell pellet was re-suspended in 30 ml of fresh culture medium by gently shaking. The cells were placed in a 96-well plate.
(§5) Subsequently, the plates were read on an ELISA reader to determine the survival rates. The half maximal inhibitory concentration (IC50) values were calculated and results of ex vivo survival assay were thus obtained.
(§6) By using the same manner as the method described above, respectively human breast cancer cell line MCF-7 and MDA-MB-231 was cultured. After then, the pharmaceutical compositions A˜F of the present invention was applied separately, and then MTT assay for each sample was measured to assess the inhibition effectiveness of various cancer cell activity while using pharmaceutical compositions A˜F of the present invention.

MDA-MB-231 = experiment: MTT survival assay on human breast-cancer cells MDA-MB-231; type: cell-based; settings: MDA-MB-231, MTT assay, isolated compound
From the text: as §1, §2, §3, §4, §5, §6

Row | Compound | half-maximal inhibitory concentration (IC50) (MCF-7) | survival rate of breast cancer cell line (MCF-7) | half-maximal inhibitory concentration (IC50) (MDA-MB-231) | survival rate of breast cancer cell line (MDA-MB-231)
1 | C=C(CC[C@@H](C(=O)O)[C@H]1CC[C@@]2(C)C3=CC[C@H]4C(C)(C)[C@@H](O)CC[C@]4(C)C3=CC[C@]12C)C(C)C [dehydroeburicoic acid] | relatively low | can inhibit the growth of breast cancer cell; also recorded: can decrease the survival rates | relatively low | can inhibit the growth of breast cancer cell; also recorded: can decrease the survival rates
2 | COC1=C(OC)[C@H](O)[C@H](C/C=C(\C)CC/C=C(/C)C/C=C/C(C)(C)O)[C@@H](C)C1=O [Antroquinonol B] | relatively low | can inhibit the growth of breast cancer cell; also recorded: can decrease the survival rates | relatively low | can inhibit the growth of breast cancer cell; also recorded: can decrease the survival rates
